The record followed here is patent US11178871B2, “Herbicidal pyrimidine compounds” (BASF SE, priority 2016, dated 2021).

Assay type in all cases: in vivo
Test [1] deals with Alopecurus myosuroides. As to the kind of experiment: greenhouse test, post-emergence treatment, ALOMY. The essentials:
(§1)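 Post-emergence: plants grown in loamy sand (~3.0% humus) to 3-15 cm, then sprayed with active ingredient suspended or emulsified in water; kept at 10-25 °C or 20-35 °C by species. Damage rated visually after 2-4 weeks, 0 (none) to 100 (complete destruction of aerial parts).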

For test [2], the system named is Amaranthus retroflexus. The test can be described thus: greenhouse test, post-emergence treatment, AMARE. The following applies: 500 g/ha. The method, boiled down:
as §1

Test [3] deals with Apera spica-venti. As to the kind of experiment: greenhouse test, post-emergence treatment, APESV. The following applies: 500 g/ha. The source says: (§2) The culture containers used were plastic flowerpots containing loamy sand with approximately 3.0% of humus as the substrate. The seeds of the test plants were sown separately for each species.
(§3) For the post-emergence treatment, the test plants were first grown to a height of 3 to 15 cm, depending on the plant habit, and only then treated with the active ingredients which had been suspended or emulsified in water. For this purpose, the test plants were either sown directly and grown in the same containers, or they were first grown separately as seedlings and transplanted into the test containers a few days prior to treatment.
(§4) Depending on the species, the plants were kept at 10-25° C. or 20-35° C., respectively.
(§5) The test period extended over 2 to 4 weeks. During this time, the plants were tended, and their response to the individual treatments was evaluated.
(§6) Evaluation was carried out using a scale from 0 to 100. 100 means no emergence of the plants, or complete destruction of at least the aerial moieties, and 0 means no damage, or normal course of growth. A good herbicidal activity is given at values of at least 70 and a very good herbicidal activity is given at values of at least 85.
(§7) The plants used in the greenhouse experiments were of the following species: […]

Test [4] has as its system Echinocloa crus-galli. As to the kind of experiment: greenhouse test, post-emergence treatment, ECHCG. The settings on record: 500 g/ha. The method, boiled down:
as §1

In test [5] the test system is Polygonum convolvulus. As to the kind of experiment: greenhouse test, post-emergence treatment, POLCO. The settings on record: 500 g/ha.
From the text: as §2, §3, §4, §5, §6, §7

Test [6] relates to Avena fatua. The test can be described thus: greenhouse test, post-emergence treatment, AVEFA. The following applies: 2000 g/ha. The essentials:
as §1

Test [7] relates to Amaranthus retroflexus. The test can be described thus: greenhouse test, pre-emergence treatment, AMARE.
From the text: as §2
For the pre-emergence treatment, the active ingredients, which had been suspended or emulsified in water, were applied directly after sowing by means of finely distributing nozzles. The containers were irrigated gently to promote germination and growth and subsequently covered with transparent plastic hoods until the plants had rooted. This cover caused uniform germination of the test plants, unless this had been impaired by the active ingredients.
as §4, §5, §6, §7

For test [8], the system named is Apera spica-venti. As to the kind of experiment: greenhouse test, pre-emergence treatment, APESV. The method, boiled down:
(§8)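 Pre-emergence greenhouse test: seeds sown per species in loamy sand (about 3.0% humus), aqueous suspension or emulsion of active sprayed right after sowing, pots covered until rooting. Kept at 10-25 °C or 20-35 °C for 2 to 4 weeks; damage scored 0 (none) to 100 (no emergence/complete destruction).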

Test [9] relates to Echinocloa crus-galli. The test can be described thus: greenhouse test, pre-emergence treatment, ECHCG. The following applies: 2000 g/ha. The essentials: as §8
Setting [10] is: 500 g/ha, printed under post-emergence, method not restated.
Setting [11] is: printed under post-emergence, method not restated.

Take `CCc1nc(CC)c(-c2nc(C3CC3)ncc2-c2ccccc2Cl)o1` [Ex. 310]: the herbicidal activity result in test [1] (setting [10]) is reported as “very good (a very good herbicidal activity is given at values of at least 85)”; in test [1] (post-emergence, 500 g/ha), “very good (a very good herbicidal activity is given at values of at least 85)”; in test [2] it was “very good (a very good herbicidal activity is given at values of at least 85)”; in [3], “very good (a very good herbicidal activity is given at values of at least 85)”; in test [4] (setting [11]), “very good (a very good herbicidal activity is given at values of at least 85)”; in test [5], “very good (a very good herbicidal activity is given at values of at least 85)”.

Consider `Cc1noc(-c2nc(C3CC3)ncc2-c2ccccc2Cl)n1` [Ex. 295], for which the herbicidal activity result in [1] (post-emergence, 2000 g/ha) is given as “very good (a very good herbicidal activity is given at values of at least 85)”; in test [6] it was “very good (a very good herbicidal activity is given at values of at least 85)”; in test [7] (2000 g/ha) it was “very good (a very good herbicidal activity is given at values of at least 85)”; in test [8] (2000 g/ha), “very good (a very good herbicidal activity is given at values of at least 85)”; in test [9] it was “very good (a very good herbicidal activity is given at values of at least 85)”.

Regarding `COC(=O)C(C)c1nc(C2CC2)ncc1-c1ccccc1Cl` (stereo not drawn) [Ex. 87], the herbicidal activity result is “very good (a very good herbicidal activity is given at values of at least 85)” in [1] (post-emergence, 2000 g/ha) and “good (A good herbicidal activity is given at values of at least 70)” in [7] (2000 g/ha).

In the case of `CCc1nc(CC)c(-c2nc(C3CC3)ncc2-c2ccccc2Br)o1` [Ex. 311], the herbicidal activity entry in [1] (setting [10]) was “very good (a very good herbicidal activity is given at values of at least 85)”; in [1] (post-emergence, 500 g/ha) it was “very good (a very good herbicidal activity is given at values of at least 85)”; in test [2], “very good (a very good herbicidal activity is given at values of at least 85)”; in [3], “very good (a very good herbicidal activity is given at values of at least 85)”; in test [4] (setting [11]) it was “very good (a very good herbicidal activity is given at values of at least 85)”; in test [5], “very good (a very good herbicidal activity is given at values of at least 85)”.

In the case of `Cc1nc(O)oc1-c1nc(C2CC2)ncc1-c1ccccc1Br` [Ex. 312], the herbicidal activity entry in [1] (setting [10]) is given as “very good (a very good herbicidal activity is given at values of at least 85)”; in [1] (post-emergence, 500 g/ha) it was “very good (a very good herbicidal activity is given at values of at least 85)”; in test [3] it was “very good (a very good herbicidal activity is given at values of at least 85)”; in test [4] (setting [11]), “very good (a very good herbicidal activity is given at values of at least 85)”; in test [4] (post-emergence) it was “very good (a very good herbicidal activity is given at values of at least 85)”; in test [5], “very good (a very good herbicidal activity is given at values of at least 85)”.

With `OC(c1cccs1)C(O)c1nc(C2CC2)ncc1-c1ccccc1Cl` (stereo not drawn) [Ex. 246], the herbicidal activity entry in test [7] (500 g/ha) is “very good (a very good herbicidal activity is given at values of at least 85)”.

As to `COC(C)Cc1nc(C2CC2)ncc1-c1ccccc1Cl` (stereo not drawn) [Ex. 233], the herbicidal activity result in test [7] (2000 g/ha) is recorded as “very good (a very good herbicidal activity is given at values of at least 85)”.

In the case of `COc1ncc(OC)c(-c2nc(C3CC3)ncc2-c2ccccc2Cl)n1` [Ex. 251], in test [7] (500 g/ha), the herbicidal activity result is reported as “very good (a very good herbicidal activity is given at values of at least 85)”.

As for `OC1(c2nc(C3CC3)ncc2-c2ccccc2Cl)C(F)(F)C(F)(F)C(F)(F)C(F)(F)C1(F)F` [Ex. 229], the herbicidal activity result was “good (A good herbicidal activity is given at values of at least 70)” in test [7] (1000 g/ha) and “very good (a very good herbicidal activity is given at values of at least 85)” in test [8] (1000 g/ha).
